1 compound from PMC8284461, “Piperidine-4-Carboxamides Target DNA Gyrase in Mycobacterium abscessus” (Antimicrobial Agents and Chemotherapy, 2021) can be followed below.

The data set is described as follows: Plasma stability. Type of data set: in vitro ADME, New Zealand white rabbits. The conditions noted are these: rabbit plasma, 37°C, 1 μg/ml. How it is done:
The plasma stability assays were carried out using plasma from female CD-1 mice, New Zealand white rabbits, rhesus monkeys, and humans containing K2EDTA anticoagulant (Bioreclamation). Stability samples consisted of 5 μl of stock compound solution in 50:50 ACN/water and 95 μl of plasma to a final concentration of 1 μg/ml. The samples were incubated at 37°C with shaking; 10 μl of plasma was removed at each time point and combined with 100 μl of ACN/methanol 50:50 protein precipitation solvent containing internal standard (10 ng/ml verapamil). Chromatography for metabolite identification was performed the same as specified for pharmacokinetic sample analysis. Full scan total ion chromatograms (TIC) of plasma extracts were acquired using a Q Exactive high-resolution mass spectrometer (QE-HRMS) at 70,000 mass resolution. Thermo Fisher Compound Discoverer software was used to assist in identifying the 844-TFM metabolites from the QE-HRMS TIC mass spectrum. Figure S2 in the supplemental material illustrates the extracted ion chromatograms (XIC) of 844-TFM and the metabolites using 5 ppm mass accuracy before and after 12 h of incubation in mouse plasma.

Structures are written as SMILES.

`COc1ccc2nccc(NC(=O)C3CCN(CCc4ccc(C(F)(F)F)cc4)CC3)c2n1` [844-TFM]: the “remaining after 24 h” value is recorded as “approximately 80%”.
